The test system of assay [1] is Human dermal microvessel endothelial cells (HDMEC). Kind of assay: In vitro endothelial cell migration assay (FGF-2 induced, transwell). It counts as cell-based. The conditions noted are these: HDMEC migration in response to FGF-2. How it is done: Human dermal microvessel endothelial cells (HDMEC) were isolated by the procedure of Richard et al., Exp. Cell Res. 240:1–6 (1998). The cells were cultured in Vitrogen precoated dishes, and maintained in EBM (Clonetics Corp, San Diego, Calif.) containing 20% fetal bovine serum (FBS), 1 mg/ml hydrocortisone acetate, 5×10^−5 M dibutyryl-cAMP, 200 U/ml penicillin, 100 U/ml streptomycin, 250 mg/ml amphotericin and 2–5 ng/ml VEGF. Murine melanoma B16F10 and murine Lewis lung carcinoma cells were obtained from the ATCC, and were maintained in Dulbecco's Modified Eagle Media (DMEM) supplemented with 10% FBS, […] penicillin, 50 U/ml streptomycin, and 2 mM glutamine (supplemented DMEM). Mink lung epithelial cells (MLECs-Clone 32) that have been stably transfected with an 800 bp fragment of the plasminogen activator inhibitor-1 (PAI-1) promoter fused to the firefly luciferase reporter gene were kindly provided by Dr. Daniel Rifkin (Abe, M. et al., Anal. Biochem. 216:276–284, 1994). The transfected MLECs were maintained in supplemented DMEM.
Cells at passage 7–10 were serum-starved and maintained in EBM with 0.1% BSA (control media) for 20 hours before trypsinization to harvest the cells. Cells were washed in EBM twice and resuspended in control media at a concentration of 1×10^6 cells/ml. […] of cells were packed down and kept frozen. They were lysed and serially diluted by CyQuant reagent (Molecular Probe, Eugene, Oreg.) to be used for standard curve construction.
Transwell membrane (24-well polycarbonate membrane, […] from Corning Costar Corporation, Cambridge, Mass.) coated with Vitrogen (30 mg/ml, Invitrogen) on both sides was used for chemotactic migration experiments. Coated transwells were inverted, […] of cell suspension applied to the top of the membrane and covered by the bottom plate carefully so that the cell suspension stayed on top of the membrane. The cells were allowed to adhere to the coated membrane for two hours in an incubator at 37° C. with 5% CO2. After the adhesion incubation, the plates were re-inverted, the bottom wells were filled with 0.4 ml control media and the top wells were filled with 0.1 ml control media containing testing reagents. The plate was returned to the incubator for 3.5 hours for the cells to migrate. At the end of the incubation, the transwells were washed in PBS and the cells on the […] of the membrane (unmigrated cells) were wiped away with a cotton swab. The membranes were cut out by scalpel and placed into 96-well plates and frozen at −80° C. overnight. […] Fluorescence reading was done 16 hours later with a SpectraFluor plate reader with excitation at 485 nm and emission at […]. The number of cells migrated was then calculated based on the standard curve.

A further assay relates to B16F10 melanoma. Description: Primary tumor growth assay, B16F10 melanoma. The following applies: for inhibition of B16F10 tumor growth: 1.0 mg/kg/day IP daily, twelfth day of treatment; for inhibition of B16F10 tumor growth (tumor volume): 2.5 mg/kg/day IP daily. It counts as in vivo, C57BL/6 mice. How it is done: The proteins for injection were mixed with Polymyxin B-Agarose (Sigma) for 30 minutes at room temperature to remove endotoxin. The endotoxin levels were less than 0.05 EU/mg as determined using the QCL-1000 assay kit (Biowhittaker, Walkersville, Md.). Proteins were filter-sterilized and the protein concentration was determined prior to injection.
Five to eight week old C57BL/6 mice (Taconic, Germantown, N.Y.) were acclimated, caged in groups of four or less and their backs were shaved. Cultured B16F10 melanoma or Lewis lung carcinoma cells (1×10^6) were inoculated subcutaneously on the back of each mouse. Tumors were measured with a dial-caliper and the volumes were determined using the formula width^2×length×0.52. The treatment began 4 days after inoculation of the tumor cells. […] The experiments were terminated and mice sacrificed when the control mice began to die, usually at day 16 post-tumor cell injection.
Each treatment group contained six five- to eight-week old C57BL/6 mice. Treatment was initiated four days after subcutaneous injection of 1×10^6 B16F10 melanoma cells. The mice received one IP injection each day of saline, TSR2, TSR2+RFK or TSR2+QFK (SEQ ID NO: 23). A soluble form of the TGFβ receptor (100 μg/mouse/injection) (Smith, J. D. et al., Circulation Research 84:1212–1222, 1999) was included in the saline or TSR2+RFK injections on treatment day 1 and 7 for two additional experimental groups. The recombinant TSR-containing proteins were used at 1.0 mg/kg/day.
Each treatment group contained six five- to eight-week old C57BL/6 mice. Treatment was initiated four days after subcutaneous injections of 1×10^6 B16F10 melanoma cells. The mice received one IP injection each day, of saline, all three type 1 repeats of human TSP-1 [3TSR (TSP1) in FIG. 9] or all three type 1 repeats of mouse TSP-2 [3TSR (TSP2) in FIG. 9]. Recombinant proteins were used at a dose of 2.5 mg/kg/day.

The subject of a further assay is B16F10 tumors. Kind of assay: Histological examination of B16F10 tumors (anti-CD31, TUNEL, PCNA). The class given is in vivo, C57BL/6 mice. The conditions noted are these: 1.0 mg/kg/day, twelfth treatment day; for decrease in number of proliferating tumor cells: PCNA positive cells; for increase in tumor cell apoptosis: TUNEL; for reduction in capillary density: anti-CD31. How it is done: The tumor tissues were cut, fixed with neutral buffered formaldehyde, and embedded in paraffin according to standard histological procedures. Hematoxylin and eosin staining was employed for tissue morphology examination. Blood vessels were immunochemically stained by anti-CD31 antibody with a Vectastain ABC kit (Vector Laboratories, Burlingame, Calif.). Tumor cell apoptosis was detected by TUNEL assay (Abe, M. et al., Anal. Biochem, 216:276–84, 1994). The number of blood vessels was recorded by counting ten high-power fields. Tumor cell proliferation and the apoptotic index were estimated by the percentage of cells scored under a light microscope. A minimum of 1,000 cells was counted in each tumor sample. To better understand the effect of the recombinant protein treatment on tumor growth, we have determined the rate of proliferation, the apoptotic index and the capillary density for tumors in the saline control group, mice treated with the TSR2+RFK protein or mice treated with the TSR2 protein at an intermediate dose (1.0 mg/kg/day) where the largest effect of inclusion of the RFK sequence is observed. Tumors were removed and fixed on the twelfth treatment day. Capillaries were visualized with anti-CD31 antibody and apoptotic cells were identified by TUNEL. […] The number of proliferating cells was decreased by 35% by treatment with the TSR2+RFK protein (p<0.005), while treatment with the TSR2 protein reduced tumor cell proliferation by 7.8% (p<0.05) (FIG. 6C).

For the molecule “TSR2: recombinant protein that contains the second TSR of human TSP-1, amino acids 416–473, excludes DKRFK”, the “concentration maximally effective in inhibiting endothelial cell migration” value in assay [1] turned out to be 10 ng/mL. Moreover, the “B16F10 tumor growth inhibition (in words)” value in the assay on B16F10 melanoma (0.25 mg/kg/day IP daily) is on record as “indistinguishable from the control group”. For the same molecule, in the assay with B16F10 melanoma, the “inhibition of B16F10 tumor growth” value is reported as 38% and the “inhibition of B16F10 tumor growth (tumor volume)” value was found to be 68%. Further, in the assay with B16F10 tumors, the “decrease in number of proliferating tumor cells” value amounted to 7.8%, the “increase in tumor cell apoptosis” value is recorded as 1.9 fold and the “reduction in capillary density” value amounted to 64%.

B1: TSR2+RFK: recombinant longer version of the second type 1 repeat of human TSP-1 including the RFK sequence, amino acids 411–473 (protein, listed as Homo sapiens)
chain: DKRFKQDGGWSHWSPWSSCSVTCGDGVITRIRLCNSPSPQMNGKPCEGEARETKACKKDACPI
With B1, the “concentration maximally effective in inhibiting endothelial cell migration” value in assay [1] turned out to be 10 ng/mL. Also, in the assay on B16F10 melanoma, the “inhibition of B16F10 tumor growth” value was 80% and the “inhibition of B16F10 tumor growth (tumor volume)” value came to 86%. In addition, in the assay on B16F10 tumors, the “decrease in number of proliferating tumor cells” value turned out to be 35%, the “increase in tumor cell apoptosis” value is on record as 4 fold and the “reduction in capillary density” value amounted to 71%.

The values are drawn from US7223731B2, “Thrombospondin-1 type 1 repeat polypeptides” (Beth Israel Deaconess Medical Center, Inc., priority 2000, dated 2007).
